Data on 16 molecules can be found in patent US4684647A, “Anti-bacterial pyrido-benzothiazine derivative and pharmaceutical composition therefor” (priority 1984, dated 1987).

≈ marks a conversion by molar mass, not a printed value.

One series concerns Staphylococcus aureus. The experiment in a line: MIC in agar, Staphylococcus aureus. The series is classed as cell-based. Conditions: Isosensitest agar, 10^4 CFU, 24 h, 37° C. The procedure:
(§1) The antibacterial activity (minimum inhibiting concentration, MIC) of the compounds according to the invention has been determined in agar, by adding the compound under evaluation at concentrations of from 0.1 to 100 meg/ml by means of a "multipoint inoculator" (Denley Techn. Ltd., England); the medium used was Isosensitest agar (Oxoid); the bacterial inoculate was 10^4 colony forming unity (CFU) per inoculation point. The reading of the results was done after 24 hour-incubation in thermostat at 37° C.
(§2) The MIC was defined as the lowest concentration of chemotherapeutic agent still capable of totally inhibiting the growth of bacteria, as detected from a lack of colony development in the inoculation point.
(§3) The microorganisms used for evaluating the activity of the specific compounds have been: Escherichia coli, Klebsiella P., Enterobacter, Serratia, Citrobacter, Proteus (+), Salmonella, Pseudomonas, Staphylococcus. All the compounds according to the present invention are provided with antibacterial activity against one or more microorganism(s) among those above mentioned. Some of such compounds are absorbed after having been administered orally to the animals, and are particularly useful as disinfectants of the urinary tract in that they are excreted in a high percentage (50-70% over 24 hours after the administration of 50 mg/kg per os) as such, and in metabolic active form, through the urine.

A further series concerns Escherichia coli (981). The experiment in a line: MIC in agar, Escherichia coli (981). It counts as cell-based. Conditions: Isosensitest agar, 10^4 CFU, 24 h, 37° C. The procedure:
as §1, §2, §3
A = Escherichia coli (981)

The test system of the next series is Pseudomonas aeruginosa. Nature of the series: MIC in agar, Pseudomonas aeruginosa. To be noted: Isosensitest agar, 10^4 CFU, 24 h, 37° C., read-out: MIC, B = Pseudomonas aeruginosa. The series is classed as cell-based. The procedure: as §1, §2, §3
B = P udomonas aeruginosa

The test system of the next series is bacteria. The experiment in a line: antibacterial activity in vitro, overall. The series is classed as cell-based. Conditions: for activity with chlorine instead of fluorine in the X-position: comparison with (a), (c), (p); for anti-bacterial activity in vitro: Table 1. The procedure:
as §1, §2, §3

In the next series the test system is Enterobacter. Nature of the series: MIC in agar, Enterobacter. It counts as cell-based. Conditions: Isosensitest agar, 10^4 CFU, 24 h, 37° C., read-out: MIC, F = Enterobacter. The protocol:
as §1, §2, §3

The next series has as its system Klebsiella pneumoniae. Nature of the series: MIC in agar, Klebsiella pneumoniae. It counts as cell-based. To be noted: Isosensitest agar, 10^4 CFU, 24 h, 37° C., read-out: MIC, E = Klebsiella pneumoniae. The procedure:
as §1, §2, §3
E = Klebsiella pneumoniae

The subject of series [1] is Proteus Morgani (indole +). The experiment in a line: MIC in agar, Proteus Morgani (indole +). It counts as cell-based. Conditions: Isosensitest agar, 10^4 CFU, 24 h, 37° C.; read-out: MIC, D = Proteus Morgani (indole +). The procedure:
as §1, §2, §3
D = Proteus Morgani (indole +)

A further series concerns Citrobacter. The experiment in a line: MIC in agar, Citrobacter. The series is classed as cell-based. To be noted: Isosensitest agar, 10^4 CFU, 24 h, 37° C., read-out: MIC, G = Citrobacter. The procedure: as §1, §2, §3
A short description of a further series: in vivo. Conditions: rat, po. The procedure: In Table 4 the percentage of urinary excretion of compound (h) is reported, as measured in the 24 hours successive to oral administration of the same to rats.
Each value is the average of three tested rats.
The tests have been performed in comparison with Ofloxacin, a well known antibacterial compound. The amount of excreted product has been determined with microbiological analysis, by using Klebsiella Pneumoniae as the testing microorganism.

The nature of series [2]: pharmacokinetic test, absorption. The series is classed as in vivo.

In the case of `CC1CSc2c(N3CCN(C)CC3)c(Cl)cc3c(=O)c(C(=O)O)cn1c23` (centres unmarked) [Comparison (q), reference compound], the MIC (in general, the lowest concentration that inhibits growth of the organism) was 3.12 µg/mL (≈ 7.92 µM) with Staphylococcus aureus; above 50 µg/mL against Escherichia coli (981); above 12.5 µg/mL in the series with Pseudomonas aeruginosa; above 50 µg/mL with Enterobacter; 12.5 µg/mL (≈ 31.7 µM) in the series with Klebsiella pneumoniae. Further, the “activity with chlorine instead of fluorine in the X-position” value (“activity with chlorine instead” below) in the series on bacteria is given as “strongly reduced”.
Consider `O=C(O)c1cn2c3c(c(N4CCCC4)c(F)cc3c1=O)S(=O)(=O)CC2` [(f), 9-fluoro-10-(1-pyrrolidinyl)-7-oxo-2,3-dihydro-7H-pyrido[1,2,3 de][1,4]benzothiazine-1,1-dioxido-6-carboxylic acid], for which the MIC in the series with Staphylococcus aureus is 3.12 µg/mL (≈ 8.52 µM); in the series with Escherichia coli (981), 3.12 µg/mL (≈ 8.52 µM); in the series on Pseudomonas aeruginosa, above 50 µg/mL; in series [1], above 50 µg/mL; in the series on Citrobacter it was 25 µg/mL (≈ 68.2 µM); with Enterobacter it was 25 µg/mL (≈ 68.2 µM). Further, the MIC with Klebsiella pneumoniae is 25 µg/mL (≈ 68.2 µM).
On to `CC1CSc2c(Cl)c(F)cc3c(=O)c(C(=O)O)cn1c23` (centres unmarked) [(n), 9-fluoro-10-chloro-3-methyl-7-oxo-2,3-dihydro-7H-pyrido[1,2,3 de][1,4]benzothiazine-6-carboxylic acid], for which the MIC came to 0.39 µg/mL (≈ 1.24 µM) with Staphylococcus aureus; 0.39 µg/mL (≈ 1.24 µM) against Escherichia coli (981); 25 µg/mL (≈ 79.7 µM) in the series with Pseudomonas aeruginosa; 0.39 µg/mL (≈ 1.24 µM) in the series on Enterobacter; 0.78 µg/mL (≈ 2.49 µM) in the series on Klebsiella pneumoniae. Moreover, the “anti-bacterial activity in vitro” value in the series with bacteria is “very good and comparable anti-bacterial activity”.
Consider `O=C(O)c1cn2c3c(c(N4CCCC4)c(Cl)cc3c1=O)SCC2` [Comparison (d), reference compound], for which the MIC was 0.78 µg/mL (≈ 2.22 µM) against Staphylococcus aureus; above 50 µg/mL with Escherichia coli (981); above 50 µg/mL in the series on Pseudomonas aeruginosa; 3.12 µg/mL (≈ 8.89 µM) in series [1]; above 50 µg/mL in the series with Citrobacter; above 50 µg/mL in the series on Enterobacter. In addition, the MIC with Klebsiella pneumoniae was 12.5 µg/mL (≈ 35.6 µM). In addition, the “activity with chlorine instead” value with bacteria is listed as “strongly reduced”.
Turning to `CC1COc2c(N3CCN(C)CC3)c(F)cc3c(=O)c(C(=O)O)cn1c23` (centres unmarked) [Ofloxacin, reference compound], the dose excreted at 24 h in the series “in vivo” (20 mg/kg) came to 61 ± 4.58%; in “in vivo” (50 mg/kg) it was 54.5 ± 5.29%.
As for `O=C(O)c1cn2c3c(c(N4CCN(CC(F)(F)F)CC4)c(F)cc3c1=O)SCC2` [(i)], the MIC is 0.39 µg/mL (≈ 0.904 µM) against Staphylococcus aureus; above 50 µg/mL against Escherichia coli (981); above 50 µg/mL in the series on Pseudomonas aeruginosa; above 50 µg/mL in [1]; 12.5 µg/mL (≈ 29 µM) with Citrobacter; above 50 µg/mL with Enterobacter. The MIC in the series with Klebsiella pneumoniae is above 50 µg/mL.
`O=C(O)c1cn2c3c(c(Cl)c(Cl)cc3c1=O)SCC2` [Comparison (b), reference compound]: the MIC is 0.78 µg/mL (≈ 2.47 µM) against Staphylococcus aureus; above 50 µg/mL in the series with Escherichia coli (981); above 50 µg/mL in the series with Pseudomonas aeruginosa; 6.25 µg/mL (≈ 19.8 µM) in [1]; above 50 µg/mL in the series with Citrobacter; above 50 µg/mL in the series with Enterobacter. For the same molecule, in the series on Klebsiella pneumoniae, the MIC was determined as 12.5 µg/mL (≈ 39.5 µM). Moreover, the “activity with chlorine instead” value in the series with bacteria was “strongly reduced”.
For the molecule `CC1CN(c2c(F)cc3c(=O)c(C(=O)O)cn4c3c2SCC4)CC(C)N1` (centres unmarked) [(m)], the MIC was determined as 3.12 µg/mL (≈ 8.27 µM) in the series with Staphylococcus aureus; 6.25 µg/mL (≈ 16.6 µM) against Escherichia coli (981); 100 µg/mL (≈ 265 µM) in the series on Pseudomonas aeruginosa; 25 µg/mL (≈ 66.2 µM) in [1]; 12.5 µg/mL (≈ 33.1 µM) in the series on Citrobacter; 3.12 µg/mL (≈ 8.27 µM) in the series on Enterobacter. The MIC in the series with Klebsiella pneumoniae was 6.25 µg/mL (≈ 16.6 µM).
As to `CC1CSc2c(N3CCN(C)CC3)c(F)cc3c(=O)c(C(=O)O)cn1c23` (centres unmarked) [(p)], the MIC in the series on Staphylococcus aureus was 0.78 µg/mL (≈ 2.07 µM); against Escherichia coli (981), 0.78 µg/mL (≈ 2.07 µM); in the series with Pseudomonas aeruginosa, 50 µg/mL (≈ 132 µM); in the series with Enterobacter, below 0.39 µg/mL; with Klebsiella pneumoniae, below 0.39 µg/mL. Besides, in the series on bacteria, the “anti-bacterial activity in vitro” value is “very good and comparable anti-bacterial activity”.
`CC1CSc2c(N3CCNCC3)c(F)cc3c(=O)c(C(=O)O)cn1c23` (centres unmarked) [(r)]: the MIC is 0.78 µg/mL (≈ 2.15 µM) with Staphylococcus aureus; 0.78 µg/mL (≈ 2.15 µM) against Escherichia coli (981); 12.5 µg/mL (≈ 34.4 µM) in the series with Pseudomonas aeruginosa; below 0.39 µg/mL in the series on Enterobacter; below 0.39 µg/mL in the series with Klebsiella pneumoniae. In addition, the “anti-bacterial activity in vitro” value in the series on bacteria is “very good and comparable anti-bacterial activity”.
With `CC1CSc2c(F)c(F)cc3c(=O)c(C(=O)O)cn1c23` (centres unmarked) [(o), 9,10-difluoro-3-methyl-7-oxo-2,3-dihydro-7H-pyrido[1,2,3 de][1,4]benzothiazine-6-carboxylic acid], the “anti-bacterial activity in vitro” value in the series with bacteria is “very good and comparable anti-bacterial activity”.
For `O=C(O)c1cn2c3c(c(N4CCCC4)c(F)cc3c1=O)SCC2` [(c)], the MIC is below 0.39 µg/mL against Staphylococcus aureus; 1.56 µg/mL (≈ 4.67 µM) with Escherichia coli (981); 3.12 µg/mL (≈ 9.33 µM) in the series with Pseudomonas aeruginosa; 3.12 µg/mL (≈ 9.33 µM) in series [1]; 25 µg/mL (≈ 74.8 µM) with Citrobacter; 1.56 µg/mL (≈ 4.67 µM) in the series with Enterobacter. The MIC in the series on Klebsiella pneumoniae amounted to 1.56 µg/mL (≈ 4.67 µM). Also, the “anti-bacterial activity in vitro” value in the series with bacteria is “very good and comparable anti-bacterial activity”.
For `O=C(O)c1cn2c3c(c(Cl)c(F)cc3c1=O)SCC2` [(a), 9-fluoro-10-chloro-7-oxo-2,3-dihydro-7H-pyrido[1,2,3de][1,4]benzothiazine-6-carboxylic acid], the MIC in the series with Staphylococcus aureus was 0.39 µg/mL (≈ 1.3 µM); with Escherichia coli (981) it was 0.39 µg/mL (≈ 1.3 µM); in the series on Pseudomonas aeruginosa it was above 25 µg/mL; in [1] it was 1.56 µg/mL (≈ 5.21 µM); in the series on Citrobacter, 0.78 µg/mL (≈ 2.6 µM); in the series with Enterobacter it was 0.39 µg/mL (≈ 1.3 µM). The MIC with Klebsiella pneumoniae amounted to 0.78 µg/mL (≈ 2.6 µM). Also, the “anti-bacterial activity in vitro” value in the series on bacteria is “very good and comparable anti-bacterial activity”. Moreover, in series [2], the “absorption” value is listed as “not at all absorbed”.
Consider `O=C(O)c1cn2c3c(c(N4CCCC4)c(F)cc3c1=O)[S+]([O-])CC2` (centres unmarked) [(e)], for which the MIC against Staphylococcus aureus was 12.5 µg/mL (≈ 35.7 µM); against Escherichia coli (981), 12.5 µg/mL (≈ 35.7 µM); with Pseudomonas aeruginosa, above 50 µg/mL; in series [1] it was above 50 µg/mL; in the series on Citrobacter, 50 µg/mL (≈ 143 µM); in the series with Enterobacter, 50 µg/mL (≈ 143 µM). For the same molecule, the MIC in the series on Klebsiella pneumoniae was 25 µg/mL (≈ 71.4 µM).
In the case of `O=C(O)c1cn2c3c(c(N4CCNCC4)c(F)cc3c1=O)SCC2` [(g)], the MIC against Staphylococcus aureus is 0.78 µg/mL (≈ 2.23 µM); against Escherichia coli (981), 0.39 µg/mL (≈ 1.12 µM); with Pseudomonas aeruginosa it was 12.5 µg/mL (≈ 35.8 µM); in series [1], 1.56 µg/mL (≈ 4.46 µM); with Citrobacter, 0.78 µg/mL (≈ 2.23 µM); in the series on Enterobacter, below 0.39 µg/mL. Further, the MIC with Klebsiella pneumoniae is below 0.39 µg/mL. The “anti-bacterial activity in vitro” value in the series on bacteria is “very good and comparable anti-bacterial activity”.
As to `O=C(O)c1cn2c3c(c(N4CCN(C(=O)C(F)(F)F)CC4)c(F)cc3c1=O)SCC2` [(l)], the minimum inhibitory concentration (MIC) with Staphylococcus aureus was 1.56 µg/mL (≈ 3.5 µM); in the series with Escherichia coli (981) it was below 0.39 µg/mL; with Pseudomonas aeruginosa it was 12.5 µg/mL (≈ 28.1 µM); in [1] it was 1.56 µg/mL (≈ 3.5 µM); in the series on Citrobacter, 0.39 µg/mL (≈ 0.876 µM); with Enterobacter, below 0.39 µg/mL. Moreover, the MIC in the series with Klebsiella pneumoniae is below 0.39 µg/mL. Further, in the series with bacteria, the “anti-bacterial activity in vitro” value is “very good and comparable anti-bacterial activity”.
